The target of test [1] is Poly [ADP-ribose] polymerase 1 (Homo sapiens, UniProt P09874). Kind of test: PARP Fluorescence Anisotropy Binding Assay.
Method: (§1) Recombinant full length 6HIS tagged PARP1 protein was diluted to 6 nM with 50 mM Tris pH 8, 0.001% Triton X100, 10 mM MgCl2, 150 mM NaCl and incubated for four hours with an equivalent volume of 2 nM fluorescent probe diluted with 50 mM Tris pH 8, 0.001% Triton X100, 10 mM MgCl2, 150 mM NaCl. The final DMSO concentration of the probe was kept below 1% (v/v).Recombinant full length PARP2 protein was diluted to 6 nM with 50 mM Tris pH 8, 0.001% Triton X100, 10 mM MgCl2, 150 mM NaCl and incubated for four hours with an equivalent volume of 2 nM fluorescent probe diluted with 50 mM Tris pH 8, 0.001% Triton X100, 10 mM MgCl2, 150 mM NaCl. The final DMSO concentration of the probe was kept below 1% (v/v).Recombinant full length PARP3 protein was diluted to 100 nM with 50 mM Tris pH 8, 0.001% Triton X100, 10 mM MgCl2, 150 mM NaCl and incubated for four hours with an equivalent volume of 6 nM fluorescent probe diluted with 50 mM Tris pH 8, 0.001% Triton X100, 10 mM MgCl2, 150 mM NaCl.
For test [2], the target named is Poly [ADP-ribose] polymerase 2 (Homo sapiens, UniProt Q9UGN5). Kind of test: PARP Fluorescence Anisotropy Binding Assay.
Method: as §1

Broadly, the IC50 is the midpoint of a concentration-inhibition curve. Low values mean greater potency, high ones weaker potency.

Sequence of Poly [ADP-ribose] polymerase 2 (Q9UGN5 whole entry): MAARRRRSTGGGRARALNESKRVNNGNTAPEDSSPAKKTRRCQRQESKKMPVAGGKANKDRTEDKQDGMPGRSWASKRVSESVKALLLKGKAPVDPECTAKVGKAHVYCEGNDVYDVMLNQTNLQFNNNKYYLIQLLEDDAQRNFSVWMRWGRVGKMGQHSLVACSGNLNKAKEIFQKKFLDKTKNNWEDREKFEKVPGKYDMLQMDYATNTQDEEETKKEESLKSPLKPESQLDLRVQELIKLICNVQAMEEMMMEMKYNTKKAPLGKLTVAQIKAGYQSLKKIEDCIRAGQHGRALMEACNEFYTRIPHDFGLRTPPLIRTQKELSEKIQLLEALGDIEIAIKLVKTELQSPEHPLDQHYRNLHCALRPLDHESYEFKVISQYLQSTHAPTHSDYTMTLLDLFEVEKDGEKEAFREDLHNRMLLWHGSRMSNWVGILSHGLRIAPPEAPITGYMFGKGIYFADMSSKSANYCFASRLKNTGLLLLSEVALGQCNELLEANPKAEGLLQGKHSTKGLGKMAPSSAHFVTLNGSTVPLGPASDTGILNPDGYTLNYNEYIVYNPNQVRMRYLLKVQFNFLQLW
Sequence of Poly [ADP-ribose] polymerase 1 (P09874 whole entry): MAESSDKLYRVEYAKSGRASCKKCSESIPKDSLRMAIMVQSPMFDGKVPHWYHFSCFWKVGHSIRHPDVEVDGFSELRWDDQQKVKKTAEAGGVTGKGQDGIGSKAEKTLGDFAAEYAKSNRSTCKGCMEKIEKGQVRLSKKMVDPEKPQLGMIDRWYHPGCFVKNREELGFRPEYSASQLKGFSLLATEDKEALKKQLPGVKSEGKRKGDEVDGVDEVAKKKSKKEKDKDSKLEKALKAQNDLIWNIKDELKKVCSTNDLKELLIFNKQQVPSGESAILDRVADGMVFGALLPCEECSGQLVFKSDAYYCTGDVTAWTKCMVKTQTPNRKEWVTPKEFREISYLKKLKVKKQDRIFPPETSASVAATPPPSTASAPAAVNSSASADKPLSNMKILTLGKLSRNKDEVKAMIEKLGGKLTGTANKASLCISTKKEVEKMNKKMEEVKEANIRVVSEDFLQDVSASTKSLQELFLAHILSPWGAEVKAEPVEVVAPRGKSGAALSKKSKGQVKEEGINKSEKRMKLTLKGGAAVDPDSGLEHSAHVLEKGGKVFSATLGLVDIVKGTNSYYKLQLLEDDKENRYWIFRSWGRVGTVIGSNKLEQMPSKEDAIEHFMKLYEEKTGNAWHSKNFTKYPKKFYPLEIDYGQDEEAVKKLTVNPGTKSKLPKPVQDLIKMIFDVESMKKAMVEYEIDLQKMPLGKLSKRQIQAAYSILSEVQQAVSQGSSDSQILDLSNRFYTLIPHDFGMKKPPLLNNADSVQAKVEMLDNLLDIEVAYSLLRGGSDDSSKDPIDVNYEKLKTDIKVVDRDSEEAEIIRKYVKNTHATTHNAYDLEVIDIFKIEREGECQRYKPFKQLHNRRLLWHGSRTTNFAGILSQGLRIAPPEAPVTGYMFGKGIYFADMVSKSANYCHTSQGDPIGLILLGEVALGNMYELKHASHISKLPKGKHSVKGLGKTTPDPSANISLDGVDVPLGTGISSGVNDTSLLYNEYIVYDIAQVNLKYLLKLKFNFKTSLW

Turning to `CNC(=O)c1ccc(N2CCN(Cc3ccc4nc(OC)c(=O)[nH]c4c3C)CC2)c(F)n1` [US20250082630, Example 58], the values for the IC50 in test [1] and in test [2] were 8 nM and greater than 100000 nM, respectively.

For the origin of these results see BindingDB's records for patent US20250082630 (AstraZeneca, 2025).
